Patent publication US20260125371A1, “METHOD FOR INHIBITING CLOSTRIDIOIDES DIFFICILE SPORE GERMINATION” (UNIVERSITY OF NOTRE DAME DU LAC, priority 2022, published 2026)
Converted amounts (≈) assume the structure as drawn. “And” between values parts separate entries of the source, which are not always exact repeats. Equal values may be shown once.

Tests used:
C. difficile ATCC 43255 = assay: Determination of minimal-inhibitory concentrations (microdilution), C. difficile ATCC 43255; type: cell-based, Clostridioides difficile; conditions: for MIC (μg/mL) 48 h: C. difficile ATCC 43255, 48-h incubation; for MIC (μg/mL) 24 h: C. difficile ATCC 43255, 24 h
S. aureus = assay: MIC against S. aureus strains; type: cell-based; conditions: S. aureus ATCC 29213, 24 h

| SMILES | MIC (μg/mL) 48 h (C. difficile ATCC 43255) | MIC (μg/mL) 24 h (C. difficile ATCC 43255) | MIC (μg/mL) 24 h (S. aureus) |
| --- | --- | --- | --- |
| Oc1ccc(-c2nc(-c3ccc(Oc4ccc(C(F)(F)F)cc4)cc3)no2)cc1O [Compound 12] | 128 µg/mL and >128 µg/mL | >128 µg/mL | 2 µg/mL (≈ 4.83 µM) |
| COc1cc(-c2nc(-c3ccc(Oc4ccc(C(F)(F)F)cc4)cc3)no2)ccc1O [Compound 13] | 16 µg/mL (≈ 37.4 µM) | 16 µg/mL (≈ 37.4 µM) | >128 µg/mL |
| O=c1ccc(-c2nc(-c3ccc(Oc4ccc(C(F)(F)F)cc4)cc3)no2)c[nH]1 [Compound 14] | >128 µg/mL | >128 µg/mL | >128 µg/mL |
| Nc1cc(-c2nc(-c3ccc(Oc4ccc(C(F)(F)F)cc4)cc3)no2)cnc1O [Compound 15] | >128 µg/mL | >128 µg/mL | >128 µg/mL |
| FC(F)(F)c1ccc(Oc2ccc(-c3noc(-c4ccc(Br)cc4)n3)cc2)cc1 [Compound 18] | >128 µg/mL | >128 µg/mL | >128 µg/mL |
| O=[N+]([O-])c1ccc(-c2nc(-c3ccc(Oc4ccc(C(F)(F)F)cc4)cc3)no2)cc1 [Compound 19] | >128 µg/mL | >128 µg/mL | ≥128 µg/mL |
| Nc1ccc(-c2nc(-c3ccc(Oc4ccc(C(F)(F)F)cc4)cc3)no2)cc1F [Compound 20] | >128 µg/mL | >128 µg/mL | 2 µg/mL (≈ 4.82 µM) |
| COc1ccc(-c2nc(-c3ccc(Oc4ccc(C(F)(F)F)cc4)cc3)no2)cc1[N+](=O)[O-] [Compound 22] | >128 µg/mL | >128 µg/mL | >128 µg/mL |
| Nc1cc(-c2nc(-c3ccc(Oc4ccc(C(F)(F)F)cc4)cc3)no2)ccn1 [Compound 24] | >128 µg/mL | >128 µg/mL | >128 µg/mL |
